Measured values: US7605178B2, “Therapeutic compounds” (Allergan, Inc., priority 2006, dated 2009)

How the values were obtained:
EP2 [1] = biological target: T1, EP2 (Homo sapiens, UniProt P43116); assay: EP2 flipr; format: cell-based
Excerpt: (§1) U.S. patent application Ser. No. 11/553,143, filed on Oct. 26, 2006, incorporated by reference herein, describes the methods used to obtain the in vitro data in the table below.

EP4 [2] = biological target: T2, EP4 (Homo sapiens, UniProt P35408); assay: EP4 binding (KI)
T2 sequence (P35408 whole entry): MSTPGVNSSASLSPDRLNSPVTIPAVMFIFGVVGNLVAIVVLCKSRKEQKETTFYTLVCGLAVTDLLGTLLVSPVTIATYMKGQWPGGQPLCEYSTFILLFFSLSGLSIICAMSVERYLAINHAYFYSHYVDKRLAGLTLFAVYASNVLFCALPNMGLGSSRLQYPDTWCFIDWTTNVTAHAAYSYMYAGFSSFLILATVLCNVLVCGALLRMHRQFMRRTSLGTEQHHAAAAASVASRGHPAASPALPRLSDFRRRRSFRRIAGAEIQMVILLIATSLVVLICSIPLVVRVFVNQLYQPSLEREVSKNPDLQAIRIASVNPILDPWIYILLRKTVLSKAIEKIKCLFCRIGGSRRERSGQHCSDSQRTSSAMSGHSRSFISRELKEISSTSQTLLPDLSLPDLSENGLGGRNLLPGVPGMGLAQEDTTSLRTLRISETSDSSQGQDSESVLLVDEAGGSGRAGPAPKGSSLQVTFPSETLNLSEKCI
Excerpt: as §1

hIP = hIP (Homo sapiens, UniProt P43119); assay: Other receptors: hIP functional EC50; format: cell-based
Sequence of hIP (P43119 whole entry): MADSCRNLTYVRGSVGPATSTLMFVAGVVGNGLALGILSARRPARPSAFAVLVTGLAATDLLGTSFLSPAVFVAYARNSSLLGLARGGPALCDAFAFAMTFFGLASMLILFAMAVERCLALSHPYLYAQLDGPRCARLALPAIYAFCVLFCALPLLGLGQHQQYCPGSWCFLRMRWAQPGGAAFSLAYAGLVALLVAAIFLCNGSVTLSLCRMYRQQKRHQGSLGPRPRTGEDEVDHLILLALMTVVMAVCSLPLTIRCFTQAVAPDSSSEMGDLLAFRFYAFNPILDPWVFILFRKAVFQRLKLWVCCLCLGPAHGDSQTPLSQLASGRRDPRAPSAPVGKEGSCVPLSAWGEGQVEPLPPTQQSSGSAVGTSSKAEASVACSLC
Excerpt: as §1

EP2 [3] = biological target: T1, EP2; assay: EP2 binding (Ki)
Excerpt: as §1

hEP3A = biological target: T3, hEP3A (Homo sapiens, UniProt P43115); assay: Other receptors: hEP3A functional EC50; format: cell-based
T3 sequence (P43115 1-390): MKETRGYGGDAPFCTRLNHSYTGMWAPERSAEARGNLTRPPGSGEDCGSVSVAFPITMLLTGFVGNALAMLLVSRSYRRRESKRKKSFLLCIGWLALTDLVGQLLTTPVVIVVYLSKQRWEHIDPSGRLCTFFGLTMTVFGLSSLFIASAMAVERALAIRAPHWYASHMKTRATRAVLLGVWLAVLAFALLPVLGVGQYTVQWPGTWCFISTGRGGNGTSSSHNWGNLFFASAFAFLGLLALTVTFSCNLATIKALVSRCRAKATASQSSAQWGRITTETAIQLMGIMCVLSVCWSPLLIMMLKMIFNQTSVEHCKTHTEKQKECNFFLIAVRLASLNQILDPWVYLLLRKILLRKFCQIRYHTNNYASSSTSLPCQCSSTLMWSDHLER
Excerpt: as §1

EP4 [4] = biological target: T2, EP4; assay: EP4 flipr; format: cell-based
Excerpt: as §1

EP2 [5] = biological target: T1, EP2; assay: EP2 cAMP; format: cell-based
Excerpt: as §1

hTP = biological target: T4, hTP (Homo sapiens, UniProt P21731); assay: Other receptors: hTP functional EC50; format: cell-based
T4 sequence (P21731 1-343): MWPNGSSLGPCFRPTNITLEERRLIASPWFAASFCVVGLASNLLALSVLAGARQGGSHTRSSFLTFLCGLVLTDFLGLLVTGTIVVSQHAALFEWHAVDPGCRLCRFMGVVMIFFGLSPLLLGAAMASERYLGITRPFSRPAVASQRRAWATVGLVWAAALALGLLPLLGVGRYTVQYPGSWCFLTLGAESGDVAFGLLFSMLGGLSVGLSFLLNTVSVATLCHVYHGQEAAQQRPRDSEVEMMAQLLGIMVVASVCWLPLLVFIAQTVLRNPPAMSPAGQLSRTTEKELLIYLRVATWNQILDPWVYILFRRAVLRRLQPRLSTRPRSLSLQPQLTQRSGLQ
Excerpt: as §1

hDP = biological target: T5, hDP (Homo sapiens, UniProt Q13258); assay: Other receptors: hDP functional EC50; format: cell-based
T5 sequence (Q13258 1-359): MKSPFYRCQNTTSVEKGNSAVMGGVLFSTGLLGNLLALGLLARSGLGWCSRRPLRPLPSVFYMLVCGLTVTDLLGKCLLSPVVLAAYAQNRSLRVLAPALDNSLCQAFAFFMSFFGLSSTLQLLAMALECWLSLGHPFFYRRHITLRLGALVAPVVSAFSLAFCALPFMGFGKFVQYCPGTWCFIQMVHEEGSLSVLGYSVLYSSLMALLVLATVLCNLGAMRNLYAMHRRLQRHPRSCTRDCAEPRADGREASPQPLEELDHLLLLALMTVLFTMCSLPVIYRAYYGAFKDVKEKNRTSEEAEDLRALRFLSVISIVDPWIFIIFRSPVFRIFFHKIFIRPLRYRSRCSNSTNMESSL
Excerpt: as §1

normotensive dogs = assay: Intraocular pressure and ocular surface hyperemia in normotensive dogs; format: in vivo; details: 0.01%, once daily for 5 days
Method: (§2) U.S. Pat. No. 7,091,231 describes the methods used for these in vivo tests.
5-(3-((1R,2R,3R,5R)-5-chloro-2-((3,5-dichlorophenylthio)methyl)-3-hydroxycyclopentyl)propyl)-thiophene-2-carboxylic acid (20) was tested in normotensive dogs at 0.01%, dosing once daily for 5 days. The maximum intraocular pressure (IOP) decrease from baseline was 6.3 mmHg (35%) at 6 h; the maximum ocular surface hyperemia (OSH) score was 1.7 at 52 h.

[6] = system: laser-induced hypertensive monkeys; assay: Intraocular pressure in laser-induced hypertensive monkeys; format: in vivo; details: 0.01%, one single day dose, at 24 h
Method: as §2
The composition and dosage regimen of In vivo example 1 was also tested in laser-induced hypertensive monkeys, using one single day dose. At 0.01%, the maximum IOP decrease from baseline was 13.9 mmHg (40%) at 24 h.

T1 sequence (P43116 whole entry): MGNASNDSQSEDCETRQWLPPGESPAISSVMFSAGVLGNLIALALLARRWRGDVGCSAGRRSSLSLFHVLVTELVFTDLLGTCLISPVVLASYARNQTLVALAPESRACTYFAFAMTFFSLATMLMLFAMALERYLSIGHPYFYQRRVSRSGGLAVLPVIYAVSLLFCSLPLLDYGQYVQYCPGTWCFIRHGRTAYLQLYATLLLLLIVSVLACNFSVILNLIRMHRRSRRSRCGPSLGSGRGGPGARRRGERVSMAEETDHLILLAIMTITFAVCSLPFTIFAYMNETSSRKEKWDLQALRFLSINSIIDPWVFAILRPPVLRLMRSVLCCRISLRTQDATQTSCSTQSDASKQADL

Row | SMILES | EC50 (EP2 [1]) | Ki (EP4 [2]) | EC50 (hIP) | Ki (EP2 [3]) | EC50 (hEP3A) | EC50 (EP4 [4]) | EC50 (EP2 [5]) | EC50 (hTP) | EC50 (hDP) | maximum ocular surface hyperemia (OSH) score (normotensive dogs; at 52 h) | maximum intraocular pressure (IOP) decrease from baseline (percent) (normotensive dogs; at 6 h) | maximum IOP decrease from baseline [6] | maximum IOP decrease from baseline (percent) [6]
1 | O=C(O)CCC/C=C\C[C@@H]1[C@@H](CNc2cc(Cl)cc(Cl)c2)[C@H](O)C[C@H]1Cl [compound 11, (Z)-7-{(1R,2S,3R,5R)-5-Chloro-2-[(3,5-dichloro-phenylamino)-methyl]-3-hydroxy-cyclopentyl}-hept-5-enoic acid] | 135 nM | 1030 nM | > 10000 nM | 18 nM | > 10000 nM | > 10000 nM | 0.5 nM | > 10000 nM | – | – | – | – | –
2 | CC(=O)N(C[C@@H]1[C@@H](C/C=C\CCCC(=O)O)[C@H](Cl)C[C@H]1O)c1cc(Cl)cc(Cl)c1 [compound 10, (Z)-7-((1R,2S,3R,5R)-2-{[Acetyl-(3,5-dichloro-phenyl)-amino]-methyl}-5-chloro-3-hydroxy-cyclopentyl)-hept-5-enoic acid] | 6370 nM | > 10000 nM | > 10000 nM | 2090 nM | – | – | 29 nM | 2680 nM | – | – | – | – | –
3 | O=C(O)CCC/C=C\C[C@@H]1[C@@H](CSc2cc(Cl)cc(Cl)c2)[C@H](O)C[C@H]1Cl [compound 5, (Z)-7-[(1R,2R,3R,5R)-5-Chloro-2-(3,5-dichloro-phenylsulfanylmethyl)-3-hydroxy-cyclopentyl]-hept-5-enoic acid] | 3360 nM | 376 nM | > 10000 nM | 22 nM | > 10000 nM | > 10000 nM | 0.4 nM | 1720 nM | > 10000 nM | – | – | – | –

Second part, led by results:

Row | EC50 (EP2 [1]) | Ki (EP4 [2]) | EC50 (hIP) | Ki (EP2 [3]) | EC50 (hEP3A) | EC50 (EP4 [4]) | EC50 (EP2 [5]) | EC50 (hTP) | EC50 (hDP) | maximum ocular surface hyperemia (OSH) score (normotensive dogs; at 52 h) | SMILES | maximum intraocular pressure (IOP) decrease from baseline (percent) (normotensive dogs; at 6 h) | maximum IOP decrease from baseline [6] | maximum IOP decrease from baseline (percent) [6]
4 | 101 nM | > 10000 nM | – | 12 nM | – | – | 0.4 nM | 4210 nM | – | – | O=C(O)c1ccc(CCC[C@@H]2[C@@H](C[S+]([O-])c3cc(Cl)cc(Cl)c3)[C@H](O)C[C@H]2Cl)s1 (stereo partly drawn) [compound 22, 5-(3-((1R,2R,3R,5R)-5-chloro-2-((3,5-dichlorophenylsulfinyl)methyl)-3-hydroxycyclopentyl)propyl)-thiophene-2-carboxylic acid] | – | – | –
5 | 59 nM | 828 nM | – | 0.3 nM | – | > 10000 nM | 0.11 nM | – | – | 1.7 | O=C(O)c1ccc(CCC[C@@H]2[C@@H](CSc3cc(Cl)cc(Cl)c3)[C@H](O)C[C@H]2Cl)s1 [compound 20, 5-(3-((1R,2R,3R,5R)-5-chloro-2-((3,5-dichlorophenylthio)methyl)-3-hydroxycyclopentyl)propyl)-thiophene-2-carboxylic acid] | 35% | 13.9 mmHg | 40%
6 | > 10000 nM | – | – | 336 nM | – | – | 110 nM | – | – | – | O=C(O)c1ccc(CCC[C@@H]2[C@@H](CNc3cc(Cl)cc(Cl)c3)[C@H](O)C[C@H]2Cl)s1 [compound 15, 5-(3-((1R,2S,3R,5R)-5-chloro-2-((3,5-dichlorophenylamino)methyl)-3-hydroxycyclopentyl)propyl)-thiophene-2-carboxylic acid] | – | – | –
7 | 850 nM | 2330 nM | – | 9 nM | – | > 10000 nM | 1.3 nM | – | – | – | O=C(O)c1ccc(CCC[C@@H]2[C@@H](CSc3cc(F)cc(F)c3)[C@H](O)C[C@H]2Cl)s1 [compound 25, 5-(3-((1R,2R,3R,5R)-5-chloro-2-((3,5-difluorophenylthio)methyl)-3-hydroxycyclopentyl)propyl)-thiophene-2-carboxylic acid] | – | – | –
